These results are taken from patent US11337944B2, “Method of treating colorectal cancers using a PKC inhibitor” (UNIVERSITY OF SOUTH FLORIDA, priority 2016, dated 2022).

“Also recorded” adds a separate entry of the source. Read-outs that look alike come from different tables or passages of the source.

Data set [1] deals with HT-29 colon cancer cell line. The experiment in a line: HT-29 colon cancer cell proliferation, viable cell count (Tryphan blue exclusion, scepter). In kind it is cell-based. To be noted: for HT-29 cell proliferation at 0.25 μM / HT-29 cell proliferation at 1.5 μM: after three days of treatment; for effect on HT-29 cell proliferation with concentration: 24-72 hours, several concentrations; for IC50: HT-29, three days of treatment, read-out: decrease of growth of HT-29 cells by 50 percent (IC50). As for the experimental part: (§1) The colon cancerous cell line, HT-29 and normal colon epithelial cells, CCD18CO were obtained from American Type Tissue Culture Collection. The HT-29 cells and CCD18CO cells were subculture and maintained in T75 flasks containing McCoy's media and Eagle's Minimum Essential Media respectively, both of the flasks were supplemented with 10% FBS (Fetal Bovine Serum) and 1% antibiotics (Penicillin 10 U/ml and streptomycin 10 mg/ml). Cells were incubated at 37° C. and 5% CO2. After few days of incubation following subculture, cells were used at 70-80% confluency for the experiment.
Cells (3.0×10^4/well) were grown as monolayer on 6 wells plate. […] Cells are then washed (2 ml 2× DPBS buffer), trypsinized, resuspended in McCoy's 5A media and counted with hemocytometer, Scepter & MTT assay.
After starting treatment, viable cells were counted at each 24 hours interval using Tryphan blue exclusion assay and scepter. The data represents n=4 independent experiments.
HT-29 cells were treated with five different concentrations of DNDA for 24-72 hours. After starting treatment, viable cells were counted at each 24 hours interval using Tryphan blue exclusion assay and scepter. The data represents n=4 independent experiments.
HT-29 cells were treated with five different concentrations of ICA-1 for 24-72 hours. After starting treatment, viable cells were counted at each 24 hours interval using Tryphan blue exclusion assay and scepter. The data represents n=4 independent experiments.
HT-29 cells were treated with four different concentrations of ζ-Stat for 24-72 hours. After starting treatment, viable cells were counted at each 24 hours interval using Tryphan blue exclusion assay and scepter. The data represents n=4 independent experiments.

Data set [2] deals with CCD18CO normal colorectal cells. As to the kind of experiment: Western blot of survival and apoptotic proteins in CCD18CO normal cells. In kind it is cell-based. To be noted: 7 μM, 72 hours, immunoblot. The method, then: CCD18CO cells were treated with 7 μM ICA-I or 7 μM ζ-Stat, respectively, for 72 hours, harvested and whole cell lysates were prepared. Equal amounts (40 μg) of protein were loaded on SDS-PAGE followed by immunoblotting for PKC-ι, PKC-ζ, Caspase-3, BCL-XL, and β-actin to see the effect of specific aPKC inhibition on survival and apoptotic proteins. Data represents n=3 independent experiments.

The target in data set [3] is T1, PKC-ζ (Homo sapiens, UniProt Q05513).
T1 construct: harvested and whole cell extracts were prepared; endogenous in cells; host or cells: HT-29
T1 sequence (Q05513 1-592): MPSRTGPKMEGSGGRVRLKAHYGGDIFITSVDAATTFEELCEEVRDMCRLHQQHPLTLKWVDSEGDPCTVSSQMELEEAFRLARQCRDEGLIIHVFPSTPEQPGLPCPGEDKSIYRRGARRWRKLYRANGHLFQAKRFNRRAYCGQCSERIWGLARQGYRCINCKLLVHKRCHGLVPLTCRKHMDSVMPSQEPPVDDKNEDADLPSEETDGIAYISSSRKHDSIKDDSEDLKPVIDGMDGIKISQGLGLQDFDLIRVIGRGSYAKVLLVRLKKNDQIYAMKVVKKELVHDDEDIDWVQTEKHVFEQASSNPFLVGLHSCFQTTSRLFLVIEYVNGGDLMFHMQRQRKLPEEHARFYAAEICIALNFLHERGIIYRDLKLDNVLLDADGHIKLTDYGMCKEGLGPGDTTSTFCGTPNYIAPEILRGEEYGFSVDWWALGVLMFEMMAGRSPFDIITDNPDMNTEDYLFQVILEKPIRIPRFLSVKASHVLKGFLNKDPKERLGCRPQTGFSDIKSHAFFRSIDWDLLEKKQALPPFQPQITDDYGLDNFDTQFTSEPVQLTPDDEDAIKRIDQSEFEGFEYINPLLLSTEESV
To be noted: cited from earlier work.

Data set [4] deals with T2, PKC-ι (Homo sapiens, UniProt P41743).
T2 construct: harvested and whole cell extracts were prepared; endogenous in cells; host or cells: HT-29
T2 sequence (P41743 1-596): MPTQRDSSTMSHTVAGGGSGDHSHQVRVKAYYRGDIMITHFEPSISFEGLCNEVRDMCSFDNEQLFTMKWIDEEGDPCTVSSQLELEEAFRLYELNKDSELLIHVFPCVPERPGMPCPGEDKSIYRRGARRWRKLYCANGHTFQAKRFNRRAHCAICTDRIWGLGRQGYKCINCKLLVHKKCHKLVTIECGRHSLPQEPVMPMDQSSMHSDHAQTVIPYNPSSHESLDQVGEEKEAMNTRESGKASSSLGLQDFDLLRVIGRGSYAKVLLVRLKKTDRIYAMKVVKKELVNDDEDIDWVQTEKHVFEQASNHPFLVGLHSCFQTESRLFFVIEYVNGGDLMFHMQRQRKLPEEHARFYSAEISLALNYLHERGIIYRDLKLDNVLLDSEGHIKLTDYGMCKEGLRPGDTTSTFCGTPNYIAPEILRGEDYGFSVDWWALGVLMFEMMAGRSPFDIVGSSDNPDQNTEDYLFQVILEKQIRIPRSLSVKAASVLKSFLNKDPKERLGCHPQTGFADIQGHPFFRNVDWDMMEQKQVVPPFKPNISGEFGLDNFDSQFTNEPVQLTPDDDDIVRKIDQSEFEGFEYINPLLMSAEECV
The following applies: cited from earlier work.

Data set [5] concerns the target T1, PKC-ζ. The experiment in a line: Western blot of PKC-ζ expression and phosphorylation in HT-29 cells. The following applies: HT-29, 72 hours, increasing concentrations, immunoblot. Type of data set: cell-based. As for the experimental part:
(§2) Cells were cultured (9.0×10^4) in 100 mm cell culture flasks. […] Equal volume of sterile water (vehicle control) as the volume of drug was added in the control also. Treatment was continued for three consecutive days. Total cell-lysates were prepared and subjected to western blot analysis for aPKC analysis.
(§3) Because PKC-ι and PKC-ζ are homologous (84%) in terms of amino acids sequence of their catalytic domain [7], the specificity of the effect of ζ-Stat on PKC-ζ was tested by performing western blot analysis. HT-29 colorectal cancerous cells were treated with seven different concentrations of ζ-Stat for 72 hours, harvested and whole cell extracts were prepared. Equal amounts (40 μg) of protein were loaded on SDS-PAGE followed by immunoblotting for pPKC-ι(T555), PKC-ι, pPKC-ζ(T410), PKC-ζ, pAKT(S473) and β-actin to examine the effect of ζ-Stat on those protein levels. Data represents n=3 independent observations.

For data set [6], the target named is T2, PKC-ι. As to the kind of experiment: Western blot of PKC-ι expression and phosphorylation in HT-29 cells. In kind it is cell-based. The following applies: HT-29, 72 hours, increasing concentrations, immunoblot. As for the experimental part: as §2, §3
In data set [7] the test system is HT-29 colorectal cancer cells. As to the kind of experiment: Western blot of survival and apoptotic proteins (Caspase-3, BCL-XL, Survivin) in HT-29 cells. In kind it is cell-based. The following applies: HT-29, 7 μM, 72 hours, immunoblot. As for the experimental part: HT-29 colorectal cancer cells were treated with 7 μM ICA-I or 7 μM ζ-Stat for 72 hours, harvested and whole cell lysates were prepared. Equal amounts (40 μg) of protein were loaded on SDS-PAGE followed by immunoblotting for Caspase-3, BCL-XL, Survivin and β-actin to determine the effects of specific aPKC inhibition on survival and apoptotic proteins. Data represents n=3 independent experiments.

The test system of data set [8] is CCD18CO normal colon epithelial cell line. As to the kind of experiment: MTT assay on CCD18CO normal colon epithelial cells. In kind it is cell-based. The method, then: as §1
To establish the efficacy of ζ-Stat as a specific inhibitor of PKC-ζ, the effect of ζ-Stat on CCD18CO normal colon epithelial cell line was tested. CCD18CO normal epithelial cell line cells were treated with four different concentrations of ζ-Stat for three consecutive days followed by incubation with MTT reagent and taking absorbance reading at each half an hour interval for three hours at 577 nm using microplate reader. The data represents n=3 independent experiments.
The percentage of inhibition of CCD18C0 cell growth was measured after three hours of MTT incubation. […] The data represents n=3 independent replicates (FIG. 19).

In the case of `NC(=O)c1ncn(C2CC(COP(=O)(O)O)C(O)C2O)c1N` (stereo not drawn) [ICA-1, [4-(5-amino-4-carbamoylimidazol-1-yl)-2,3-dihydroxycyclopentyl] methyl dihydrogen phosphate], in data set [1], the “HT-29 cell proliferation at 0.25 μM” value is reported as “slight increase in cell proliferation”, the “HT-29 cell proliferation at 1.5 μM” value is given as “dramatic decrease in cell proliferation”, the “effect on HT-29 cell proliferation with concentration” value (shortened to “effect on HT-29 cell proliferation”) is “decrease colon cancer cell proliferation in a dose-dependent manner” and the 50% inhibitory concentration (IC50) was approximately 950 nM. Moreover, in data set [2], the “toxicity to normal epithelial cells CCD18CO” value was “not toxic”.
Consider `Nc1c(S(=O)(=O)O)cc2cc(S(=O)(=O)O)ccc2c1N` [DNDA, 3,4, diamino-2,7-naphthalene disulfonic acid], for which, in data set [1], the “HT-29 cell proliferation at 0.25 μM” value is given as “slight decrease in proliferation”, the “HT-29 cell proliferation at 1.5 μM” value was “dramatic decrease in proliferation”, the “effect on HT-29 cell proliferation” value is “decrease colon cancer cell proliferation in a dose-dependent manner” and the IC50 is approximately 780 nM. Moreover, the “inhibition of PKC-ζ” value in data set [3] was “about 80%”. The “inhibition of PKC-ι” value in data set [4] is “about 20%”.
On to `O=S(=O)(O)c1cc(O)c2c(S(=O)(=O)O)cc(S(=O)(=O)O)cc2c1` [ζ-Stat, 8-hydroxy-1,3,6-naphthalenetrisulfonic acid], for which, in data set [1], the “HT-29 cell proliferation at 1.5 μM” value is “dramatic decrease in cell proliferation” and the “effect on HT-29 cell proliferation” value is recorded as “inhibits colon cancer cell proliferation in a dose-dependent manner”. The IC50 in data set [1] (Homo sapiens, 72 h) is approximately 1400 nM. Also, the “inhibition of HT-29 cells” value in data set [1] (treatment over three days) is on record as “about 60%”. Further, the “level / phosphorylation of PKC-ζ” value in data set [5] is “decrease the levels of total and phosphorylated PKC-ζ; also recorded: selective decrease in the phosphorylation of PKC-ζ”. Further, in data set [6], the “effect on PKC-ι” value is “without affecting PKC-ι; also recorded: specifically inhibits PKC-ζ not PKC-ι”. The “level of pro-survival proteins” value in data set [7] was “decreases the level of pro-survival proteins”. The “effect on normal colon epithelial cells CCD18CO (cell number / toxicity)” value in data set [8] (1.0-3.0 μM, three consecutive days, MTT) was “not toxic; also recorded: did not change”. The “percent inhibition of CCD18CO cell growth” value in data set [8] (after three hours of MTT incubation) was “less than 10%”. Further, the “toxicity to normal epithelial cells CCD18CO” value in data set [2] is given as “not toxic”.
